This note sets out measurements from patent EP4740948A1 (Dong Wha Pharm. Co., Ltd., priority 2023, dated 2025).

For one assay, the target named is EZH1 (Homo sapiens, UniProt Q92800). In words: AlphaLISA enzyme activity inhibition, EZH1. It counts as biochemical. The following applies: for inhibition at 0.005 µM: 5nM test substance; for inhibition at 0.01 µM: 10nM test substance. The protocol: (§1) In order to confirm the EZH1 and/or EZH2 activity inhibitory effect of the 1,3-benzodioxole derivative compounds represented by chemical formula I of the present invention, the activity was measured using an AlphaLISA test method. The test substance dissolved in dimethylsulfoxide (DMSO) was diluted in a test solution (20 mM Tris pH 8.0, 0.1% BSA, 0.01% Triton X-100, 0.5 mM DTT) according to a final treatment concentration (5 nM or 10 nM) and mixed with EZH1 and EZH2, respectively, and then histone H3 peptide and S-adenosylmethionine (SAM) were added to initiate an enzyme reaction. An acceptor bead was added thereto after reaction for two hours and subjected to an additional reaction for one hour, after which a donor bead was added thereto. After an additional reaction for 30 minutes, the reaction was completed. An activity was measured using the Magellan program on a Spark10M instrument. DMSO was used as a control group, an inhibition rate of enzyme activity was calculated using a following equation, and the results thereof are shown in Table 1 below. [formula]
For orientation: In Alpha technology, singlet oxygen from a donor bead excites a nearby acceptor bead.

The subject of another assay is G401 cells. In words: Cancer cell proliferation inhibition (Cell Counting Kit-8), rhabdoid tumor cell line. It counts as cell-based. The note with it: 1000 nM, cultured seven to 11 days; for inhibition at 1 µM: Homo sapiens, G-401, 264 h, read-out: % inhibition rate G401; for % inhibition rate G401: 1 µM. An outline of the steps:
(§2)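 Single 1000 nM dose of test substance, applied to cells seeded at 100–1,000 per well in 10% FBS medium, then culture for seven to 11 days. CCK-8 read-out; inhibition rate expressed as percent relative to untreated control.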
Background: Formazan colour is commonly taken as a measure of viable cells.

The test system of the next assay is MIA-PaCa-2 cells. In words: Cancer cell proliferation inhibition (Cell Counting Kit-8), pancreatic cancer cell line. In kind it is cell-based. The following applies: Homo sapiens, MIA PaCa-2, 264 h, 1000 nM, cultured seven to 11 days; read-out: % inhibition rate MIA-Paca2. The method in brief: (§3)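 CCK-8 readout after 7–11 day culture with 1000 nM compound; seeding 100–1,000 cells/well in 10% FBS medium (RPMI1640, McCoy's 5a, L-15 or DMEM). % inhibition vs untreated control.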

A further assay relates to Lovo cells. In words: Cancer cell proliferation inhibition (Cell Counting Kit-8), colorectal cancer cell line. In kind it is cell-based. The following applies: Homo sapiens, LoVo, 264 h, 1000 nM, cultured seven to 11 days; read-out: % inhibition rate LoVo. The method in brief: as §3
In a further assay the target is EZH2 (Homo sapiens, UniProt Q15910). Put plainly: AlphaLISA enzyme activity inhibition, EZH2. It counts as biochemical. The note with it: for inhibition at 0.005 µM: 5nM test substance; for inhibition at 0.01 µM: 10nM test substance. The protocol: as §1
The subject of a further assay is SW-13 cells. Put plainly: Cancer cell proliferation inhibition (Cell Counting Kit-8), adrenal cancer cell line. It counts as cell-based. The following applies: Homo sapiens, SW13, 264 h, 1000 nM, cultured seven to 11 days; read-out: % inhibition rate SW-13. An outline of the steps:
as §3

The test system of a further assay is MKN-45 cells. Put plainly: Cancer cell proliferation inhibition (Cell Counting Kit-8), gastric cancer cell line. It counts as cell-based. The note with it: Homo sapiens, MKN-45, 264 h, 1000 nM, cultured seven to 11 days; read-out: % inhibition rate MKN -45. The method in brief: as §2
The next assay deals with NCI-H1299 cells. In words: Cancer cell proliferation inhibition (Cell Counting Kit-8), lung cancer cell line. The following applies: Homo sapiens, NCI-H1299, 264 h, 1000 nM, cultured seven to 11 days; read-out: % inhibition rate NCI-H129 9. It counts as cell-based. An outline of the steps:
as §3

Sequence of EZH1 (Q92800 whole entry, species assumed): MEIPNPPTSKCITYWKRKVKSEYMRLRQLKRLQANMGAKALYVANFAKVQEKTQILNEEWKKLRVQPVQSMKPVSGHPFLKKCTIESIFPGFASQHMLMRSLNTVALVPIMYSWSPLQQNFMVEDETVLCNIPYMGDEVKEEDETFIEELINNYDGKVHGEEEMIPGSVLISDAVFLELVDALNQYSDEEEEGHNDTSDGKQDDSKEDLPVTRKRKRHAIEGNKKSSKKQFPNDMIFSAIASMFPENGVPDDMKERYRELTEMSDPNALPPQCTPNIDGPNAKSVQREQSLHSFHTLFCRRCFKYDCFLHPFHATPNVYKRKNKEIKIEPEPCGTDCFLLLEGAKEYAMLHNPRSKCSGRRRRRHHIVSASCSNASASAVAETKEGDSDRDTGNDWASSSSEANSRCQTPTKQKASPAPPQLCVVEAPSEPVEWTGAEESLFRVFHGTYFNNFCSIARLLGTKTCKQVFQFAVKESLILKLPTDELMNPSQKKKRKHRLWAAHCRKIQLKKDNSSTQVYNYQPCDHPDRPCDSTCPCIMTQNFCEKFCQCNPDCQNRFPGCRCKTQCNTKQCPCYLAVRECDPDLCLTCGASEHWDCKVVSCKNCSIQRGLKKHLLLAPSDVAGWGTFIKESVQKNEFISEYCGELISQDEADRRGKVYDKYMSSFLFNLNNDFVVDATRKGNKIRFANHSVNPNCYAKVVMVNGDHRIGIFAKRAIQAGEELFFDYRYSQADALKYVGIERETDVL
Sequence of EZH1 (O75530 whole entry partner, species assumed): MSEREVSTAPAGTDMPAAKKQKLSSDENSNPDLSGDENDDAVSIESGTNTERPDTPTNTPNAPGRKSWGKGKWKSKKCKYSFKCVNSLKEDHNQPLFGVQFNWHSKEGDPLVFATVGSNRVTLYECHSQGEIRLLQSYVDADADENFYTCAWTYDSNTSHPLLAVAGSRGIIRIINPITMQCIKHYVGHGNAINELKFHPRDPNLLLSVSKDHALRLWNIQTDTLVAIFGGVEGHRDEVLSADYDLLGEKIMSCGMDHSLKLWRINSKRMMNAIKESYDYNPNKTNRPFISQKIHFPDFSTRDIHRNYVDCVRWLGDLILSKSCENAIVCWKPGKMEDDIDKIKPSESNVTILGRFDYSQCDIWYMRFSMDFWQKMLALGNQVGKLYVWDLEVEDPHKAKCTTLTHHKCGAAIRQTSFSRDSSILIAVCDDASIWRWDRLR
Sequence of EZH1 (Q15022 whole entry partner, species assumed): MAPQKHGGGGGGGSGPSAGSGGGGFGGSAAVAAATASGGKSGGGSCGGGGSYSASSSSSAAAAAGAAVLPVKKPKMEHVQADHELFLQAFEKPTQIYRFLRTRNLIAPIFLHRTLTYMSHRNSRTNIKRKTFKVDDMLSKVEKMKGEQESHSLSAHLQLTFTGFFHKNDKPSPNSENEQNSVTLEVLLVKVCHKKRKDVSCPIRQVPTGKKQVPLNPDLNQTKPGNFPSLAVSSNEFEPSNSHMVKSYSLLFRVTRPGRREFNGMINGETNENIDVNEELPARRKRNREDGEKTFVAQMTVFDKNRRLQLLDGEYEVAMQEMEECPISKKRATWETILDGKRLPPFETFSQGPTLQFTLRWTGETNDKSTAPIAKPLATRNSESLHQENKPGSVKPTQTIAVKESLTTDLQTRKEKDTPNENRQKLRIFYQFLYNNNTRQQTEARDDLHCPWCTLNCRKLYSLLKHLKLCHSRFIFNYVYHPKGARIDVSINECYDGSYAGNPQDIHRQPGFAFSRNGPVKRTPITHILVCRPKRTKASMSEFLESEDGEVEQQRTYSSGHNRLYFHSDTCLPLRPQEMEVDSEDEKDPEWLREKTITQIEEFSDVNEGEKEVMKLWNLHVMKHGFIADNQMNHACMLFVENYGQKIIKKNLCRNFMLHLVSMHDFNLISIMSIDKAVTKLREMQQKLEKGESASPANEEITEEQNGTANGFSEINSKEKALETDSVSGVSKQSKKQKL
Sequence of EZH2 (Q15910 whole entry, species assumed): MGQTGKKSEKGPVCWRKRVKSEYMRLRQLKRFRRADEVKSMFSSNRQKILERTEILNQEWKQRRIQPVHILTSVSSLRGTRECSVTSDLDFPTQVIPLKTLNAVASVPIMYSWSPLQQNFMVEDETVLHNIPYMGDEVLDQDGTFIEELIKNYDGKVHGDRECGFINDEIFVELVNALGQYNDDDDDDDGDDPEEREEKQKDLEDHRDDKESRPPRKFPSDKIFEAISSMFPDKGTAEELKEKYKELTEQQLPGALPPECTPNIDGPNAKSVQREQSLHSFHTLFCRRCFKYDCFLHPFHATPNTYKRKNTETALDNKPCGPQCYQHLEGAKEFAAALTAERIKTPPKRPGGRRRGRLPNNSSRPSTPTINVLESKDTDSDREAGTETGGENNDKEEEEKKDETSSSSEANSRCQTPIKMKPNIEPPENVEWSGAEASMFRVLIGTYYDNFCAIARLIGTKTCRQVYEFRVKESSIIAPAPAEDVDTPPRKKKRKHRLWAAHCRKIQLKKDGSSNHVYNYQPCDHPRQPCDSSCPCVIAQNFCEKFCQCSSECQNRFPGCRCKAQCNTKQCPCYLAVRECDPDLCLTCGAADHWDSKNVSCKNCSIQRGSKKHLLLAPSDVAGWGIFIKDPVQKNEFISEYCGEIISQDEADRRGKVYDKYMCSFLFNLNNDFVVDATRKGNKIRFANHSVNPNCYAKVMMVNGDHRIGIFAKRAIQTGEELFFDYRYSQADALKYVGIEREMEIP
Sequence of EZH2 (O75530 whole entry partner, species assumed): as the sequence (O75530 whole entry partner, species assumed) above
Sequence of EZH2 (Q15022 whole entry partner, species assumed): as the sequence (Q15022 whole entry partner, species assumed) above

Turning to `CSc1cc(C)[nH]c(=O)c1CNC(=O)c1cc(-c2ccc(N3C[C@@H](C)O[C@@H](C)C3)nc2)c2c(c1C)OC(C)([C@H]1CC[C@H](N(C)CC3OCCO3)CC1)O2` (stereo partly drawn) [Compound 32, 2-(trans-4-(((1,3-dioxolan-2-yl)methyl)(methyl)amino)cyclohexyl)-7-(6-((2S,6R)-2,6-dimethylmorpholino)pyridin-3-yl)-2,4-dimethyl-N-((6-methyl-4-(methylthio)-2-oxo-1,2-dihydropyridin-3-yl)methyl)benzo[d][1,3]dioxole-5-carboxamide], the inhibition at 0.005 µM against EZH1 came out at 74.1%; on EZH2, 82.6%. For the same compound, the inhibition at 1 µM was 30 to 70% in the assay with G401 cells; at most 30% in the assay on MIA-PaCa-2 cells; at least 70% in the assay on Lovo cells; 30 to 70% in the assay with SW-13 cells; 30 to 70% in the assay on MKN-45 cells; 30 to 70% in the assay with NCI-H1299 cells.

For the compound `CSc1cc(C)[nH]c(=O)c1CNC(=O)c1cc(-c2ccc(N3CCOCC3)nc2)c2c(c1C)OC(C)(C1CCN(CC(F)(F)F)CC1)O2` (centres unmarked) [Compound 61, 2,4-dimethyl-N-((6-methyl-4-(methylthio)-2-oxo-1,2-dihydropyridin-3-yl)methyl)-7-(6-morpholinopyridin-3-yl)-2-(1-(2,2,2-trifluoro)piperidin-4-yl)benzo[d][1,3]dioxole-5-carboxamide], the inhibition at 0.005 µM on EZH1 was determined as 53%; on EZH2, 86.5%. For the same compound, the results for the inhibition at 0.01 µM on EZH1 and against EZH2 were 78.2% and 99.4%, respectively. Besides, the inhibition at 1 µM was at least 70% in the assay with G401 cells; at most 30% in the assay on MIA-PaCa-2 cells; at least 70% with Lovo cells; at most 30% in the assay on SW-13 cells; 30 to 70% in the assay on MKN-45 cells; 30 to 70% in the assay with NCI-H1299 cells.

For `CSc1cc(C)[nH]c(=O)c1CNC(=O)c1cc(-c2ccc(N3C[C@@H](C)O[C@@H](C)C3)nc2)c2c(c1C)OC(C)([C@H]1CC[C@H](N(C)CC(F)(F)F)CC1)O2` (stereo partly drawn) [Compound 20, 7-(6-((2S,6R)-2,6-dimethylmorpholino)pyridin-3-yl)-2,4-dimethyl-2-(trans-4-(methyl(2,2,2-trifluoroethyl)amino)cyclohexyl)-N-((6-methyl-4-(methylthio)-2-oxo-1,2-dihydropyridin-3-yl)methyl)benzo[d][1,3]dioxole-5-carboxamide], the results for the inhibition at 0.005 µM against EZH1 and against EZH2 were 34.3% and 26.1%, respectively. Moreover, the inhibition at 1 µM in the assay with G401 cells is 30 to 70%; with MIA-PaCa-2 cells, at most 30%; with Lovo cells, at least 70%; with SW-13 cells, at most 30%; in the assay on MKN-45 cells, 30 to 70%; in the assay with NCI-H1299 cells, at most 30%.

For `CSc1cc(C)[nH]c(=O)c1CNC(=O)c1cc(-c2ccoc2)c2c(c1C)OC(C)([C@H]1CC[C@H](N(C)C)CC1)O2` (relative stereo) [Compound 18, 2-(trans-4-(dimethylamino)cyclohexyl)-7-(furan-3-yl)-2,4-dimethyl-N-((6-methyl-4-(methylthio)-2-oxo-1,2-dihydropyridin-3-yl)methyl)benzo[d][1,3]dioxole-5-carboxamide], the inhibition at 0.005 µM on EZH1 worked out at 87.6%; on EZH2, 99.8%. For the same compound, the inhibition at 1 µM was 30 to 70% in the assay on G401 cells; at most 30% in the assay on MIA-PaCa-2 cells; at least 70% in the assay with Lovo cells; 30 to 70% with SW-13 cells; at most 30% in the assay with MKN-45 cells; at most 30% with NCI-H1299 cells.

Turning to `CCN(C)c1ccc(-c2cc(C(=O)NCc3c(SC)cc(C)[nH]c3=O)c(C)c3c2OC(C)(C2CCN(CC(F)F)CC2)O3)cn1` (single isomer, unassigned) [Compound 88, 2-(1-(2,2-difluoroethyl)piperidin-4-yl)-7-(6-(ethyl(methyl)amino)pyridin-3-yl)-2,4-dimethyl-N-((6-methyl-4-(methylthio)-2-oxo-1,2-dihydropyridin-3-yl)methyl)benzo[d][1,3]dioxole-5-carboxamide], the inhibition at 0.005 µM at EZH1 amounted to 45.2%; on EZH2, 99.5%. In addition, the inhibition at 0.01 µM worked out at 62% at EZH1 and 99.9% against EZH2. Besides, the inhibition at 1 µM was at least 70% in the assay with G401 cells; at most 30% in the assay with MIA-PaCa-2 cells; at least 70% in the assay on Lovo cells; 30 to 70% with SW-13 cells; 30 to 70% with MKN-45 cells; at most 30% in the assay with NCI-H1299 cells.

`CCN1CCC(C2(C)Oc3c(-c4ccc(N5CCOCC5)nc4)cc(C(=O)NCc4c(SC)cc(C)[nH]c4=O)c(C)c3O2)CC1` (single isomer, unassigned) [Compound 66, 2-(1-ethylpiperidin-4-yl)-2,4-dimethyl-N-((6-methyl-4-(methylthio)-2-oxo-1,2-dihydropyridin-3-yl)methyl)-7-(6-morpholinopyridin-3-yl)benzo[d][1,3]dioxole-5-carboxamide]: the inhibition at 0.005 µM came out at 81.3% on EZH1 and 99.3% at EZH2. The inhibition at 0.01 µM worked out at 90.9% on EZH1 and 99.6% against EZH2. For the same compound, the “% inhibition rate G401” value in the assay with G401 cells is “+++ (+++: ≥70%)”. The inhibition at 1 µM is at most 30% in the assay on MIA-PaCa-2 cells; 30 to 70% in the assay on Lovo cells; at most 30% with SW-13 cells; 30 to 70% in the assay with MKN-45 cells; at most 30% with NCI-H1299 cells.

Turning to `CCN(C)c1ncc(-c2cc(C(=O)NCc3c(SC)cc(C)[nH]c3=O)c(C)c3c2OC(C)(C2CCN(CC(F)(F)F)CC2)O3)cn1` (centres unmarked) [Compound 78], the results for the inhibition at 0.005 µM on EZH1 and at EZH2 were 53.1% and 86.1%, respectively. For the same compound, the inhibition at 0.01 µM at EZH1 was determined as 79.3%; at EZH2 it was 98.1%. Moreover, the inhibition at 1 µM in the assay on G401 cells is at least 70%; in the assay with MIA-PaCa-2 cells, at most 30%; in the assay with Lovo cells, at least 70%; with SW-13 cells, at most 30%; in the assay with MKN-45 cells, 30 to 70%; in the assay on NCI-H1299 cells it was at most 30%.

`CSc1cc(C)[nH]c(=O)c1CNC(=O)c1cc(-c2ccc(N3C[C@@H](C)O[C@@H](C)C3)nc2)c2c(c1C)OC(C)(C1CCN(CC(F)F)CC1)O2` (single isomer, unassigned) [Compound 47]: the inhibition at 0.005 µM on EZH1 came out at 68.1%; against EZH2, 94.5%. Further, the inhibition at 0.01 µM against EZH1 amounted to 86.7%; at EZH2 it was 99.6%. In addition, the “% inhibition rate G401” value in the assay on G401 cells is “+++ (+++: ≥70%)”. Besides, the inhibition at 1 µM in the assay on MIA-PaCa-2 cells is at most 30%; with Lovo cells, at least 70%; in the assay with SW-13 cells it was 30 to 70%; with MKN-45 cells, 30 to 70%; in the assay on NCI-H1299 cells it was 30 to 70%.

By inhibition is commonly meant the share of the control response that was lost under treatment.
